Positions of bridges follow the written chain, without caps; N, C: chain ends. Chains are numbered I, II in the order given. No end group written: not given here.
Assays:
[1] = test system: serum cytokines and chemokines; details: mouse, in vivo
Procedure: To determine whether the responses in serum proteins would be different in tumor-bearing mice from those in healthy mice, sera were collected from female mice in which breast cancer 4T1 cells had been implanted. After the tumors had grown over a period of 10 to 12 days to a size of ˜500 mm^3, tetravalent svL4 was injected subcutaneously at doses of 0.1 and 1.0 nmol/g. Blood was withdrawn and sera prepared 4 hours after injection. The sera of untreated animals had low levels of cytokines and chemokines at 4 h. With a few proteins, such as IL-1β, IL-2, IL-6 and TNFα, the values were very low in untreated animals and upon treatment with svL4 were increased but still nearly undetectable on the array blots. […] Several cytokines that increased but were still low in amount included GM-CSF, CCL4, IGFBP-1, IL-21, lymphotoxin-α, and IL-17. Major proteins included CCL1, CCL8, CCL28, Endostatin, Fas, HVEM, IL-11, IL-12p70, IL-16, IL-27, IL-28, MIP-2, MMP-9, NOV, Soggy-1, SPARC, TIMP-2, TLR2 and VEGF-B. In some cases, the higher dose caused a higher amount of the protein, whereas with several proteins the amount was lower with the higher dose. […] A number of soluble proteins were identified as cell-surface receptors, such as Fas, HVEM and TLR2, which indicated significant shedding by activated cells. […]

[2] = set-up: species or system mice
From the text: (§1) It is important to note that during and after drug administration there was no change in mouse weight or behavior, indicating no overt toxicity related to treatment.

[3] = in vivo
From the text: as §1

I: VQATQSNQHTPRGGGSKK-NH2 / II: VQATQSNQHTPRGGGSK / III: VQATQSNQHTPRGGGS / IV: VQATQSNQHTPRGGGS (amide I:17-IV:C, I:18-II:C, II:17-III:C) [svL4, [(VQATQSNQHTPRGGGS)2K]2K—NH2]
pattern typical of a toxic "cytokine storm" [1]: did not occur
binding of peptides to sera (antigenicity) [2]: negative
change in mouse weight or behavior (overt toxicity) [3]: no change
irritation or formation of fibrous or granulomatous tissue at injection region ([3]; mouse): no apparent irritation
